Data from patent publication US6316500A, “Aliphatically unsaturated hydroxy benzoates and preservative compositions thereof” (ISP Investments Inc., priority 1999, dated 2001).

Experiments:
B. cepacia 25416 = assay: Activity test: preservative challenge test in emulsion, B. cepacia 25416; assay type: cell-based; settings: for number of colonies per milliliter, 28 days: reinoculated at 21 days
Protocol: (§1) The emulsion was prepared by separately mixing components in phase A and phase B at 75-80° C. for 15 minutes. The phases were then combined and mixed for another 10 minutes and cooled to 45° C. with stirring. Preservative was then added followed by citric acid to adjust pH to from abut 6.5 to 7.5. Stirring of the resulting mixture was continued until a temperature of 30° C. was reached. The activity tests were carried out using the following microorganisms: A. niger, B. cepacia, C. albicans, E. coli, P. aeruginosa and S. aureus. 50 g aliquots of the test emulsion containing various amounts of the preservative admixture as reported in Tables I-V were inoculated with approximately 10^7 -10^8 of the test organisms. The test samples then were stirred to disperse the challenge inoculum. The samples were incubated and assayed at 48 hours, 7, 14, 21 and 28 days. The assays were performed on 1 g, of the test sample by serially diluting 10^3 to 10^6 of the original concentration. The plating medium for bacteria was Letheen agar and for fungi it was low pH Mycophil agar with Tween 20. Each plated sample was incubated for 48 hours at 37° C. for bacteria, 5 days at 25° C. for mold and 3 days at 25° C. for fungi. After incubation, readings of the number of colonies per milliliter (cfu/ml) were made results were determined, as reported in associated Tables IA-VA. At 21 days the test product was reinoculated with half of the original inoculum.

C. albicans 10231 = assay: Activity test: preservative challenge test in emulsion, C. albicans 10231; assay type: cell-based; settings: for number of colonies per milliliter, 28 days: reinoculated at 21 days
Protocol: as §1

S. aureus 6538 = assay: Activity test: preservative challenge test in emulsion, S. aureus 6538; assay type: cell-based; settings: for number of colonies per milliliter, 28 days: reinoculated at 21 days
Protocol: as §1

P. aeruginosa 9027 = assay: Activity test: preservative challenge test in emulsion, P. aeruginosa 9027; assay type: cell-based; settings: for number of colonies per milliliter, 28 days: reinoculated at 21 days
Protocol: as §1

A. niger 16404 = assay: Activity test: preservative challenge test in emulsion, A. niger 16404; assay type: cell-based; settings: for number of colonies per milliliter, 28 days: reinoculated at 21 days
Protocol: as §1

E. coli 8739 = assay: Activity test: preservative challenge test in emulsion, E. coli 8739; assay type: cell-based; settings: for number of colonies per milliliter, 28 days: reinoculated at 21 days
Protocol: as §1

[1] = about 10 ppm, beer preservative; cited from earlier work

C#CCOC(=O)c1ccc(O)cc1O [Propargyl 2,4-Dihydroxybenzoate]
number of colonies per milliliter, 48 hr (B. cepacia 25416; 0.2% preservative in emulsion): < 10 cfu/ml | number of colonies per milliliter, 7 days (B. cepacia 25416; 0.2% preservative in emulsion): < 10 cfu/ml | number of colonies per milliliter, 14 days (B. cepacia 25416; 0.2% preservative in emulsion): < 10 cfu/ml | number of colonies per milliliter, 21 days (B. cepacia 25416; 0.2% preservative in emulsion): < 10 cfu/ml | number of colonies per milliliter, 28 days (B. cepacia 25416; 0.2% preservative in emulsion): < 10 cfu/ml | number of colonies per milliliter, 48 hr (C. albicans 10231; 0.2% preservative in emulsion): 540 cfu/ml | number of colonies per milliliter, 7 days (C. albicans 10231; 0.2% preservative in emulsion): < 10 cfu/ml | number of colonies per milliliter, 14 days (C. albicans 10231; 0.2% preservative in emulsion): < 10 cfu/ml | number of colonies per milliliter, 21 days (C. albicans 10231; 0.2% preservative in emulsion): < 10 cfu/ml | number of colonies per milliliter, 28 days (C. albicans 10231; 0.2% preservative in emulsion): < 10 cfu/ml | number of colonies per milliliter, 48 hr (S. aureus 6538; 0.2% preservative in emulsion): < 10 cfu/ml | number of colonies per milliliter, 7 days (S. aureus 6538; 0.2% preservative in emulsion): < 10 cfu/ml | number of colonies per milliliter, 14 days (S. aureus 6538; 0.2% preservative in emulsion): < 10 cfu/ml | number of colonies per milliliter, 21 days (S. aureus 6538; 0.2% preservative in emulsion): < 10 cfu/ml | number of colonies per milliliter, 28 days (S. aureus 6538; 0.2% preservative in emulsion): < 10 cfu/ml | number of colonies per milliliter, 48 hr (P. aeruginosa 9027; 0.2% preservative in emulsion): < 10 cfu/ml | number of colonies per milliliter, 7 days (P. aeruginosa 9027; 0.2% preservative in emulsion): < 10 cfu/ml | number of colonies per milliliter, 14 days (P. aeruginosa 9027; 0.2% preservative in emulsion): < 10 cfu/ml | number of colonies per milliliter, 21 days (P. aeruginosa 9027; 0.2% preservative in emulsion): < 10 cfu/ml | number of colonies per milliliter, 28 days (P. aeruginosa 9027; 0.2% preservative in emulsion): < 10 cfu/ml | number of colonies per milliliter, 48 hr (A. niger 16404; 0.2% preservative in emulsion): 3500 cfu/ml | number of colonies per milliliter, 7 days (A. niger 16404; 0.2% preservative in emulsion): < 10 cfu/ml | number of colonies per milliliter, 14 days (A. niger 16404; 0.2% preservative in emulsion): < 10 cfu/ml | number of colonies per milliliter, 21 days (A. niger 16404; 0.2% preservative in emulsion): < 10 cfu/ml | number of colonies per milliliter, 28 days (A. niger 16404; 0.2% preservative in emulsion): < 10 cfu/ml | number of colonies per milliliter, 48 hr (E. coli 8739; 0.2% preservative in emulsion): < 10 cfu/ml | number of colonies per milliliter, 7 days (E. coli 8739; 0.2% preservative in emulsion): < 10 cfu/ml | number of colonies per milliliter, 14 days (E. coli 8739; 0.2% preservative in emulsion): < 10 cfu/ml | number of colonies per milliliter, 21 days (E. coli 8739; 0.2% preservative in emulsion): < 10 cfu/ml | number of colonies per milliliter, 28 days (E. coli 8739; 0.2% preservative in emulsion): < 10 cfu/ml

C#CCOC(=O)c1ccc(O)c(O)c1 [Propargyl 3,4-Dihydroxybenzoate]
number of colonies per milliliter, 48 hr (B. cepacia 25416; 0.5% preservative in emulsion): < 10 cfu/ml | number of colonies per milliliter, 7 days (B. cepacia 25416; 0.5% preservative in emulsion): < 10 cfu/ml | number of colonies per milliliter, 14 days (B. cepacia 25416; 0.5% preservative in emulsion): < 10 cfu/ml | number of colonies per milliliter, 21 days (B. cepacia 25416; 0.5% preservative in emulsion): < 10 cfu/ml | number of colonies per milliliter, 28 days (B. cepacia 25416; 0.5% preservative in emulsion): < 10 cfu/ml | number of colonies per milliliter, 48 hr (C. albicans 10231; 0.5% preservative in emulsion): < 10 cfu/ml | number of colonies per milliliter, 7 days (C. albicans 10231; 0.5% preservative in emulsion): < 10 cfu/ml | number of colonies per milliliter, 14 days (C. albicans 10231; 0.5% preservative in emulsion): < 10 cfu/ml | number of colonies per milliliter, 21 days (C. albicans 10231; 0.5% preservative in emulsion): < 10 cfu/ml | number of colonies per milliliter, 28 days (C. albicans 10231; 0.5% preservative in emulsion): < 10 cfu/ml | number of colonies per milliliter, 48 hr (S. aureus 6538; 0.5% preservative in emulsion): < 10 cfu/ml | number of colonies per milliliter, 7 days (S. aureus 6538; 0.5% preservative in emulsion): < 10 cfu/ml | number of colonies per milliliter, 14 days (S. aureus 6538; 0.5% preservative in emulsion): < 10 cfu/ml | number of colonies per milliliter, 21 days (S. aureus 6538; 0.5% preservative in emulsion): < 10 cfu/ml | number of colonies per milliliter, 28 days (S. aureus 6538; 0.5% preservative in emulsion): < 10 cfu/ml | number of colonies per milliliter, 48 hr (P. aeruginosa 9027; 0.5% preservative in emulsion): < 10 cfu/ml | number of colonies per milliliter, 7 days (P. aeruginosa 9027; 0.5% preservative in emulsion): < 10 cfu/ml | number of colonies per milliliter, 14 days (P. aeruginosa 9027; 0.5% preservative in emulsion): < 10 cfu/ml | number of colonies per milliliter, 21 days (P. aeruginosa 9027; 0.5% preservative in emulsion): < 10 cfu/ml | number of colonies per milliliter, 28 days (P. aeruginosa 9027; 0.5% preservative in emulsion): < 10 cfu/ml | number of colonies per milliliter, 48 hr (A. niger 16404; 0.5% preservative in emulsion): < 10 cfu/ml | number of colonies per milliliter, 7 days (A. niger 16404; 0.5% preservative in emulsion): < 10 cfu/ml | number of colonies per milliliter, 14 days (A. niger 16404; 0.5% preservative in emulsion): < 10 cfu/ml | number of colonies per milliliter, 21 days (A. niger 16404; 0.5% preservative in emulsion): < 10 cfu/ml | number of colonies per milliliter, 28 days (A. niger 16404; 0.5% preservative in emulsion): < 10 cfu/ml | number of colonies per milliliter, 48 hr (E. coli 8739; 0.5% preservative in emulsion): < 10 cfu/ml | number of colonies per milliliter, 7 days (E. coli 8739; 0.5% preservative in emulsion): < 10 cfu/ml | number of colonies per milliliter, 14 days (E. coli 8739; 0.5% preservative in emulsion): < 10 cfu/ml | number of colonies per milliliter, 21 days (E. coli 8739; 0.5% preservative in emulsion): < 10 cfu/ml | number of colonies per milliliter, 28 days (E. coli 8739; 0.5% preservative in emulsion): < 10 cfu/ml

C#CCOC(=O)c1ccc(O)c(Cl)c1 [Propargyl 3-Chloro-4-Hydroxybenzoate]
number of colonies per milliliter, 48 hr (B. cepacia 25416; 0.5% preservative in emulsion): > 10^6 cfu/ml | number of colonies per milliliter, 7 days (B. cepacia 25416; 0.5% preservative in emulsion): < 10^6 cfu/ml | number of colonies per milliliter, 14 days (B. cepacia 25416; 0.5% preservative in emulsion): < 10^6 cfu/ml | number of colonies per milliliter, 21 days (B. cepacia 25416; 0.5% preservative in emulsion): < 10^6 cfu/ml | number of colonies per milliliter, 28 days (B. cepacia 25416; 0.5% preservative in emulsion): < 10^6 cfu/ml | number of colonies per milliliter, 48 hr (C. albicans 10231; 0.5% preservative in emulsion): 280000 cfu/ml | number of colonies per milliliter, 7 days (C. albicans 10231; 0.5% preservative in emulsion): 370 cfu/ml | number of colonies per milliliter, 14 days (C. albicans 10231; 0.5% preservative in emulsion): < 10 cfu/ml | number of colonies per milliliter, 21 days (C. albicans 10231; 0.5% preservative in emulsion): < 10 cfu/ml | number of colonies per milliliter, 28 days (C. albicans 10231; 0.5% preservative in emulsion): < 10 cfu/ml | number of colonies per milliliter, 48 hr (S. aureus 6538; 0.5% preservative in emulsion): 9600 cfu/ml | number of colonies per milliliter, 7 days (S. aureus 6538; 0.5% preservative in emulsion): < 10 cfu/ml | number of colonies per milliliter, 14 days (S. aureus 6538; 0.5% preservative in emulsion): < 10 cfu/ml | number of colonies per milliliter, 21 days (S. aureus 6538; 0.5% preservative in emulsion): < 10 cfu/ml | number of colonies per milliliter, 28 days (S. aureus 6538; 0.5% preservative in emulsion): < 10 cfu/ml | number of colonies per milliliter, 48 hr (P. aeruginosa 9027; 0.5% preservative in emulsion): < 10 cfu/ml | number of colonies per milliliter, 7 days (P. aeruginosa 9027; 0.5% preservative in emulsion): < 10 cfu/ml | number of colonies per milliliter, 14 days (P. aeruginosa 9027; 0.5% preservative in emulsion): 80 cfu/ml | number of colonies per milliliter, 21 days (P. aeruginosa 9027; 0.5% preservative in emulsion): < 10 cfu/ml | number of colonies per milliliter, 28 days (P. aeruginosa 9027; 0.5% preservative in emulsion): < 10 cfu/ml | number of colonies per milliliter, 48 hr (A. niger 16404; 0.5% preservative in emulsion): 10000 cfu/ml | number of colonies per milliliter, 7 days (A. niger 16404; 0.5% preservative in emulsion): < 10 cfu/ml | number of colonies per milliliter, 14 days (A. niger 16404; 0.5% preservative in emulsion): < 10 cfu/ml | number of colonies per milliliter, 21 days (A. niger 16404; 0.5% preservative in emulsion): < 10 cfu/ml | number of colonies per milliliter, 28 days (A. niger 16404; 0.5% preservative in emulsion): < 10 cfu/ml | number of colonies per milliliter, 48 hr (E. coli 8739; 0.5% preservative in emulsion): 30 cfu/ml | number of colonies per milliliter, 7 days (E. coli 8739; 0.5% preservative in emulsion): < 10 cfu/ml | number of colonies per milliliter, 14 days (E. coli 8739; 0.5% preservative in emulsion): < 10 cfu/ml | number of colonies per milliliter, 21 days (E. coli 8739; 0.5% preservative in emulsion): < 10 cfu/ml | number of colonies per milliliter, 28 days (E. coli 8739; 0.5% preservative in emulsion): < 10 cfu/ml

CCCCCCCOC(=O)c1ccc(O)cc1 [heptyl p-hydroxybenzoate]
solubility in beer [1]: limited solubility in beer so that the beer becomes turbid at about 0 °C
